Test results: patent US5470852A, “Tetrahydroprotoberberine quaternary ammonium compounds useful in for treating arrhythmia” (priority 1991, dated 1995)
Like-named read-outs stand apart in the source and are kept apart here.

Experiments:
anaesthetized rats [1] = assay: animal or person; details: Rattus norvegicus
hypertrophic rat heart = assay: Reperfusion-induced VF and VT in hypertrophic rat heart (L-thyroxine); type: in vivo
Procedure: 4. In the model of hypertrophic rat heart muscle disease caused by long term injections of L-thyroxine, high incidence of VF has been induced in vitro and in vivo when compared with the control after low perfusion-reperfusion or ischemia-reperfusion protocol. […] (shown in Tab 6)
Effect of I13 (100 mg/kg, ig administration at 1 hour before experiment)
on reperfusion-induced VF and VT in hypertrophic rat heart, a
myopathy induced by injecting L-thyroxin

[2] = system: left ventricular activity in rabbits; assay: Monophasic action potential (MAP) recorded from left ventricle in rabbits; type: in vivo, rabbit
Source text: The effectiveness of I13 in lengthening APD is confirmed by the influence on monophasic action potential (MAP) recorded from the left ventricular activity in rabbits.

anaesthetized rats [3] = details: for Arrhythmic scores / Lethal risk / Antiarrhythmic effect: X ± SD; for Incidence of VF: n=10; for Death / animals with VF / animals without VF: of n=10
[4] = 100 mg/kg ig 1 hour before, n=10

COc1ccc2c(c1OC)C[N+]1(Cc3ccc(Cl)cc3)CCc3cc4c(cc3C1C2)OCO4 (stereo not shown) [Compound I13, 7-(4-chlorobenzyl)-5,8,13,13a-tetrahydroberberine chloride]
ED50 (anaesthetized rats [1]; iv): 0.16 mg/kg
ED50 (anaesthetized rats [1]; iv, read-out: ED50 against VF): 0.16 mg/kg
ED50 (anaesthetized rats [1]; iv, read-out: ED50 against arrhythmias): 0.22 mg/kg
ED50 (anaesthetized rats [1]; po): 16.5 mg/kg
ED50 (anaesthetized rats [1]; po, read-out: ED50 against VF): 20 mg/kg
ED50 (anaesthetized rats [1]; po, read-out: ED50 against arrhythmias): 16.5 mg/kg
Duration of VF (hypertrophic rat heart; [4]): 2.0 ± 3.0 min
Duration of VT (hypertrophic rat heart; [4]): 0.4 ± 0.8 min
Incidence of VF (hypertrophic rat heart; [4]): 30%
Incidence of VT (hypertrophic rat heart; [4]): 20%
inhibition of incidence of VF and VT (hypertrophic rat heart; p.o. 100 mg/kg one hour prior to ischemia): clearly inhibited the incidence of VF and VT
lengthening of APD (MAP) [2]: confirmed
anti-arrhythmic activity relative to lidocaine (anaesthetized rats [3]; i.v.): 10 times
inhibition of arrhythmias and VF induced by left coronary artery ligation (anaesthetized rats [3]; i.v. or p.o.): significantly inhibited
Arrhythmic scores (anaesthetized rats [3]; iv 0.1 mg/kg): 2.4 ± 2.2
Lethal risk (anaesthetized rats [3]; iv 0.1 mg/kg): 75 ± 30
Antiarrhythmic effect (anaesthetized rats [3]; iv 0.1 mg/kg, coronary occlusion 5 min): 0.25 ± 0.26
Antiarrhythmic effect (anaesthetized rats [3]; iv 0.1 mg/kg, coronary occlusion 10 min): 1.7 ± 2.1
Incidence of VF (anaesthetized rats [3]; iv 0.1 mg/kg): 30%
Death (anaesthetized rats [3]; iv 0.1 mg/kg): 3
animals with VF (anaesthetized rats [3]; iv 0.1 mg/kg): 3
animals without VF (anaesthetized rats [3]; iv 0.1 mg/kg): 4
Antiarrhythmic effect (anaesthetized rats [3]; iv 0.1 mg/kg, reperfusion 0.17 min): 2.2 ± 2.5
Antiarrhythmic effect (anaesthetized rats [3]; iv 0.1 mg/kg, reperfusion 0.33 min): 2.1 ± 2.1
Antiarrhythmic effect (anaesthetized rats [3]; iv 0.1 mg/kg, reperfusion 0.5 min): 2.4 ± 2.2
Antiarrhythmic effect (anaesthetized rats [3]; iv 0.1 mg/kg, reperfusion 1 min): 2.3 ± 2.6
Antiarrhythmic effect (anaesthetized rats [3]; iv 0.1 mg/kg, reperfusion 2 min): 1.6 ± 2.1
Antiarrhythmic effect (anaesthetized rats [3]; iv 0.1 mg/kg, reperfusion 3 min): 1.6 ± 2.1
Antiarrhythmic effect (anaesthetized rats [3]; iv 0.1 mg/kg, reperfusion 5 min): 1.6 ± 2.1
Antiarrhythmic effect (anaesthetized rats [3]; iv 0.1 mg/kg, reperfusion 6 min): 2.4 ± 3.4
Antiarrhythmic effect (anaesthetized rats [3]; iv 0.1 mg/kg, reperfusion 7 min): 0.20 ± 0.26
Antiarrhythmic effect (anaesthetized rats [3]; iv 0.1 mg/kg, reperfusion 10 min): 0.42 ± 0.19
Antiarrhythmic effect (anaesthetized rats [3]; iv 0.1 mg/kg, reperfusion 15 min): 0.42 ± 0.19
Antiarrhythmic effect (anaesthetized rats [3]; iv 0.1 mg/kg, reperfusion 25 min): 0.43 ± 0.19
Arrhythmic scores (anaesthetized rats [3]; iv 0.3 mg/kg): 1.2 ± 1.7
Lethal risk (anaesthetized rats [3]; iv 0.3 mg/kg): 57 ± 26
Antiarrhythmic effect (anaesthetized rats [3]; iv 0.3 mg/kg, coronary occlusion 5 min): 0.6 ± 1.3
Antiarrhythmic effect (anaesthetized rats [3]; iv 0.3 mg/kg, coronary occlusion 10 min): 0.9 ± 1.9
Incidence of VF (anaesthetized rats [3]; iv 0.3 mg/kg): 20%
Death (anaesthetized rats [3]; iv 0.3 mg/kg): 1
animals with VF (anaesthetized rats [3]; iv 0.3 mg/kg): 2
animals without VF (anaesthetized rats [3]; iv 0.3 mg/kg): 7
Antiarrhythmic effect (anaesthetized rats [3]; iv 0.3 mg/kg, reperfusion 0.17 min): 0.9 ± 1.3
Antiarrhythmic effect (anaesthetized rats [3]; iv 0.3 mg/kg, reperfusion 0.33 min): 1.3 ± 2.0
Antiarrhythmic effect (anaesthetized rats [3]; iv 0.3 mg/kg, reperfusion 0.5 min): 1.2 ± 1.7
Antiarrhythmic effect (anaesthetized rats [3]; iv 0.3 mg/kg, reperfusion 1 min): 0.8 ± 1.8
Antiarrhythmic effect (anaesthetized rats [3]; iv 0.3 mg/kg, reperfusion 2 min): 0.8 ± 1.8
Antiarrhythmic effect (anaesthetized rats [3]; iv 0.3 mg/kg, reperfusion 3 min): 0.22 ± 0.26
Antiarrhythmic effect (anaesthetized rats [3]; iv 0.3 mg/kg, reperfusion 5 min): 0.6 ± 1.2
Antiarrhythmic effect (anaesthetized rats [3]; iv 0.3 mg/kg, reperfusion 6 min): 0.8 ± 1.8
Antiarrhythmic effect (anaesthetized rats [3]; iv 0.3 mg/kg, reperfusion 7 min): 0.8 ± 1.8
Antiarrhythmic effect (anaesthetized rats [3]; iv 0.3 mg/kg, reperfusion 10 min): 0.8 ± 1.8
Antiarrhythmic effect (anaesthetized rats [3]; iv 0.3 mg/kg, reperfusion 15 min): 1.0 ± 2.2
Antiarrhythmic effect (anaesthetized rats [3]; iv 0.3 mg/kg, reperfusion 25 min): 0.2 ± 0.4
Arrhythmic scores (anaesthetized rats [3]; iv 1.0 mg/kg): 1.3 ± 1.7
Lethal risk (anaesthetized rats [3]; iv 1.0 mg/kg): 41 ± 0
Antiarrhythmic effect (anaesthetized rats [3]; iv 1.0 mg/kg, coronary occlusion 5 min): 0.4 ± 0.2
Antiarrhythmic effect (anaesthetized rats [3]; iv 1.0 mg/kg, coronary occlusion 10 min): 0.4 ± 0.2
Incidence of VF (anaesthetized rats [3]; iv 1.0 mg/kg): 0%
Death (anaesthetized rats [3]; iv 1.0 mg/kg): 0
animals with VF (anaesthetized rats [3]; iv 1.0 mg/kg): 0
animals without VF (anaesthetized rats [3]; iv 1.0 mg/kg): 10
Antiarrhythmic effect (anaesthetized rats [3]; iv 1.0 mg/kg, reperfusion 0.17 min): 1.4 ± 1.4
Antiarrhythmic effect (anaesthetized rats [3]; iv 1.0 mg/kg, reperfusion 0.33 min): 3.2 ± 2.0
Antiarrhythmic effect (anaesthetized rats [3]; iv 1.0 mg/kg, reperfusion 0.5 min): 1.6 ± 1.6
Antiarrhythmic effect (anaesthetized rats [3]; iv 1.0 mg/kg, reperfusion 2 min): 0.20 ± 0.26
Antiarrhythmic effect (anaesthetized rats [3]; iv 1.0 mg/kg, reperfusion 3 min): 0.20 ± 0.26
Antiarrhythmic effect (anaesthetized rats [3]; iv 1.0 mg/kg, reperfusion 5 min): 0.20 ± 0.26
Antiarrhythmic effect (anaesthetized rats [3]; iv 1.0 mg/kg, reperfusion 6 min): 0.20 ± 0.26
Antiarrhythmic effect (anaesthetized rats [3]; iv 1.0 mg/kg, reperfusion 7 min): 0.20 ± 0.26
Antiarrhythmic effect (anaesthetized rats [3]; iv 1.0 mg/kg, reperfusion 10 min): 0.20 ± 0.26
Antiarrhythmic effect (anaesthetized rats [3]; iv 1.0 mg/kg, reperfusion 15 min): 0.10 ± 0.21
Antiarrhythmic effect (anaesthetized rats [3]; iv 1.0 mg/kg, reperfusion 25 min): 0.10 ± 0.21
potency relative to propafenon (anaesthetized rats [3]; p.o.): considerably more potent
Arrhythmic scores (anaesthetized rats [3]; po 10 mg/kg): 2.7 ± 1.9
Antiarrhythmic effect (anaesthetized rats [3]; po 10 mg/kg, coronary occlusion 5 min): 0.4 ± 0.8
